Assay results from patent publication US20090005338A1, “Carbonyl-substituted titanocenes” (Charite - Universitatsmedizin Berlin, priority 2006, published 2009).

Experiments:
[1] = SCID mice, oral therapy 50 mg/kg body weight
[2] = system: primary lymphoblasts from an ALL patient; experiment: Apoptosis induction in primary lymphoblasts ex vivo (DNA fragmentation, propidium iodide, FACS); assay type: cell-based, human; settings: 60 h, concentration in the range of LD50 in the BLAB cell line; for apoptosis induction in primary lymphoblasts (in words): therapy-resistant leukemia cells
Description: The concentrations employed were selected to always be within the respective range of LD50 when the BLAB cell line was used. Thereafter, the cells were incubated at 37° C. and 5% CO2 for 60 hours, followed by staining with propidium iodide and quantifying by flow cytometry in FACS (Prokop et al., 2003).
The incubation was effected at 37° C. and 5% CO2 for 60 h. Apoptosis induction was measured as DNA fragmentation by flow cytometry after propidium iodide staining.

[3] = system: BJAB cells (Burkitt lymphoma cell line); experiment: Apoptosis induction detected as DNA fragmentation by flow cytometry (FACS) after propidium iodide staining; assay type: cell-based; settings: 72 h
Description: Within the scope of apoptotic cell death, the cell is dismantled proteolytically by caspases from inside. Thereupon, the DNA is also fragmented, inter alia. This DNA fragmentation, which is specific for apoptosis, is considered a proof of apoptosis induction and is detected by means of flow cytometry on the single cell level.
BJAB cells (Burkitt lymphoma cell line) in different concentrations were treated with a titanocene derivative and incubated at 37° C. and 5% CO2 for 72 hours. A control (untreated cell suspension) and a solvent control with dimethyl sulfoxide (DMSO) were continuously included. After incubation for 72 hours, apoptosis induction was detected by flow cytometry (FACS) through DNA fragmentation with propidium iodide (Eβmann, 2000).
FIG. 1: BLAB mock cells (1×10^5/ml) were treated with increasing concentrations of the titanocene derivative 4-[1-(dichlorotitanocenyl)]-4-methylbutyric acid n-octylamide (2) and incubated at 37° C. and 5% CO2 for 72 h. After propidium iodide staining, the DNA fragments were detected by flow cytometry (FACS analysis). Ko (untreated cell suspension) and DMSO (solvent control) were included with equivalent treatment.
Since the activity of the cytostatic agents develops in the malignant cells through a specific apoptosis induction, it is reasonable to measure this effect and thus the selectivity of our compounds rather than stating, as usual, the non-specific cytotoxicity described by the LC50 values. Therefore, for examining the structure-effect relationship of our titanocenes, we have established the concentration (AC50) at which a specific apoptosis is induced in […] of the lymphoma cells.
For determining this value, lymphoma cells (10^5/ml BJAB cells) were incubated in different concentrations with (21) at 5% CO2 and 37° C. for 72 h. After staining with propidium iodide, the DNA fragmentation was detected by flow cytometry by means of a FACS analysis.

[4] = system: BJAB cells; settings: 75 μM, 72 h
[5] = system: BJAB cells; settings: 48 h, concentration-dependent
Description: After treatment of the cells with different concentrations of a titanocene including a zero control and a solvent control (DMSO), the cells are incubated at 37° C. and 5% CO2 for 48 hours.
The incubation was effected at 37° C. and 5% CO2 for 48 h including zero and solvent controls, followed by staining the cells with the mitochondria-specific stain JC-1 and detection of the color change and thus the change of the mitochondrial membrane potential by flow cytometry.

[6] = system: human lymphoma cells; settings: SCID mice, microcrystalline suspension p.o., 5×50 mg/kg body weight per week over 2 weeks from day 14; Mann-Whitney U test p<0.05
Description: The mean values of the tumor volumes (*=significance) with standard deviations as a function of therapy duration (application of (2) from day 14 with 5×50 mg/kg body weight per week p.o. over 2 weeks) are shown.

[7] = system: BLAB cells; settings: 3 h incubation, highest concentration
Description: A non-specific cytotoxic effect of the titanocenes via necrosis could be excluded by measuring the extracellular lactate dehydrogenase (LDH) release by ELISA reader detection after incubation for 3 h.

[8] = system: lymphoma cells (BLAB); settings: various concentrations, 72 h
Description: Lymphoma cells (BLAB) were treated with the carbonyl-substituted titanocene (2), the conventional nucleoside analogue cytarabin (AraC), which is used in the therapy of malignant diseases, and with the combination of (2) and AraC in various concentrations for 72 h. The apoptosis induction was examined by flow cytometry by measuring the DNA fragmentation after staining the cells with propidium iodide. The measured values of three independent examinations are shown, wherein the error bars show the standard deviations from the mean.

4-[1-(dichlorotitanocenyl)]-4-methylbutyric acid n-octylamide [Complex (2)]
tolerability [1]: good tolerability
apoptosis induction, proportion of leukemia cells ex vivo [2]: about 60%
apoptosis induced, proportion of BJAB cells ([3]; 100 μM): about 840%
AC50 ([3]; BJAB cell line, 37° C., 5% CO2, read-out: AC50 (concentration at which a specific apoptosis is induced in 500% of the lymphoma cells)): 55 µM
concentration-dependent apoptosis induction (proportion of apoptotic cells in the total population) ([3]; BJAB, highest effect over the concentrations tested): up to 80%
cell morphology [4]: significant swelling and “blebbing” that is characteristic of apoptosis
proportion of cells with changed mitochondrial membrane potential (ΔΨm) [5]: more than 70%
growth of human lymphoma cells (tumor volume) [6]: significantly inhibited
viability of the cell population (LDH release) [7]: above 94%
effect of the combination with AraC on apoptosis induction [8]: significant synergistic effect

Nc1ccn([C@@H]2O[C@H](CO)[C@@H](O)[C@@H]2O)c(=O)n1 [cytarabin]
apoptosis induction in primary lymphoblasts (in words) [2]: did not induce any significant apoptosis

COc1cccc2c1C(=O)c1c(O)c3c(c(O)c1C2=O)C[C@@](O)(C(C)=O)C[C@@H]3O[C@H]1C[C@H](N)[C@H](O)[C@H](C)O1 [daunorubicin]
apoptosis induction in primary lymphoblasts (in words) [2]: did not induce any significant apoptosis

COc1cccc2c1C(=O)c1c(O)c3c(c(O)c1C2=O)C[C@@](O)(C(=O)CO)C[C@@H]3O[C@H]1C[C@H](N)[C@H](O)[C@H](C)O1 [doxorubicin]
apoptosis induction in primary lymphoblasts (in words) [2]: did not induce any significant apoptosis

COc1cccc2c1C(=O)c1c(O)c3c(c(O)c1C2=O)C[C@@](O)(C(=O)CO)C[C@@H]3O[C@H]1C[C@H](N)[C@@H](O)[C@H](C)O1 [epirubicin]
apoptosis induction in primary lymphoblasts (in words) [2]: did not induce any significant apoptosis

CC(=O)[C@]1(O)Cc2c(O)c3c(c(O)c2[C@@H](O[C@H]2C[C@H](N)[C@H](O)[C@H](C)O2)C1)C(=O)c1ccccc1C3=O [idarubicin]
apoptosis induction in primary lymphoblasts (in words) [2]: did not induce any significant apoptosis

CC[C@]1(O)C[C@H]2CN(CCc3c([nH]c4ccccc34)[C@@](C(=O)OC)(c3cc4c(cc3OC)N(C=O)[C@H]3[C@@](O)(C(=O)OC)[C@H](OC(C)=O)[C@]5(CC)C=CCN6CC[C@]43[C@@H]65)C2)C1 [vincristin]
apoptosis induction in primary lymphoblasts (in words) [2]: did not induce any significant apoptosis
